Laboratory results from article PMC4188605, “Biochemical and Pharmacological Characterization of the Human Lymphocyte Antigen B-Associated Transcript 5 (BAT5/ABHD16A)” (PLoS ONE, 2014).
Several values for one entry are separate records, joined by “and”; a condition that tells them apart may be missing. Identical values can stand only once.

What was measured:
hABHD12 [1] = biological target: T1, hABHD12 (Homo sapiens, UniProt Q8N2K0); test: Hydrolase activity assay, hABHD12-HEK lysates; assay type: biochemical
T1 construct: expressed in transfected cells; host or cells: HEK293
T1 sequence (Q8N2K0 1-398): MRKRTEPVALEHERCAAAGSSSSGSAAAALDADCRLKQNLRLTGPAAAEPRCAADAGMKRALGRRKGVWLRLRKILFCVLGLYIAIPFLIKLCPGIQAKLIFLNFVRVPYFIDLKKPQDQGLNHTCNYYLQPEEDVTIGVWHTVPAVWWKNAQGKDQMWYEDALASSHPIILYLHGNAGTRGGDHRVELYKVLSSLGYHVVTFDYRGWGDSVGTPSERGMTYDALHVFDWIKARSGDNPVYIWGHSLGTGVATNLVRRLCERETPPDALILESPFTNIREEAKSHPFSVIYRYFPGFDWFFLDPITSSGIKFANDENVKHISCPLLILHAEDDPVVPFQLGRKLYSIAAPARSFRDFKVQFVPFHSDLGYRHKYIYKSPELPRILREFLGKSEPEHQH

hMAGL [2] = biological target: T2, hMAGL (Homo sapiens, UniProt Q99685); test: Hydrolase activity assay, hMAGL-HEK lysates; assay type: biochemical
T2 construct: expressed in transfected cells; host or cells: HEK
T2 sequence (Q99685 1-303): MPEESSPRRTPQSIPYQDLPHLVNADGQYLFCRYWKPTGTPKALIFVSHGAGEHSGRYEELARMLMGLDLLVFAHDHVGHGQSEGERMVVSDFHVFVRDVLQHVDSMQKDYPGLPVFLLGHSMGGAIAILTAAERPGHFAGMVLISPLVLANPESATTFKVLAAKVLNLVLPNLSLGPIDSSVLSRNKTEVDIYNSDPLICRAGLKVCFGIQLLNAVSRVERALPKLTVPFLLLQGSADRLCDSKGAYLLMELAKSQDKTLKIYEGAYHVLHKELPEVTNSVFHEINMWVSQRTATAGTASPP

hBAT5 = biological target: T3, hBAT5 (Homo sapiens, UniProt O95870); test: Inhibition of 1-LG hydrolysis in hBAT5-HEK293 lysates (fluorescent glycerol assay); assay type: biochemical; set-up: host or cells: HEK293
T3 sequence (O95870 1-558): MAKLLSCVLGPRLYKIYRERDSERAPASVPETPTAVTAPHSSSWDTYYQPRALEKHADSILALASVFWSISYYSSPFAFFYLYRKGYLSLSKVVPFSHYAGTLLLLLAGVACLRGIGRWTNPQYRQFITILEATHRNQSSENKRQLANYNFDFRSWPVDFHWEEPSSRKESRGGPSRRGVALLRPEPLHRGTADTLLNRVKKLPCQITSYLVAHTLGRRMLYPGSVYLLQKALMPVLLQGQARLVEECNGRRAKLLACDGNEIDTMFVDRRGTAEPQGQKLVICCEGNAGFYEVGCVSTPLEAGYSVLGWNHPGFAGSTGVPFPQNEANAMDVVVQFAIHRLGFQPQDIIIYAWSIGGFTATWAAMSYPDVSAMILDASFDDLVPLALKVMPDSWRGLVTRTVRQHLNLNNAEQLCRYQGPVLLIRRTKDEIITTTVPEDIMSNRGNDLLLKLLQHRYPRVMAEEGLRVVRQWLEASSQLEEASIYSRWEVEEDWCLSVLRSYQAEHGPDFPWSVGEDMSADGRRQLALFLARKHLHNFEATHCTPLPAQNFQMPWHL

hABHD6 [3] = biological target: T4, hABHD6 (Homo sapiens, UniProt Q9BV23); test: Hydrolase activity assay, hABHD6-HEK lysates; assay type: biochemical; settings: hABHD6-HEK lysates; read-out: IC50
T4 construct: expressed in transfected cells; host or cells: HEK293
T4 sequence (Q9BV23 1-337): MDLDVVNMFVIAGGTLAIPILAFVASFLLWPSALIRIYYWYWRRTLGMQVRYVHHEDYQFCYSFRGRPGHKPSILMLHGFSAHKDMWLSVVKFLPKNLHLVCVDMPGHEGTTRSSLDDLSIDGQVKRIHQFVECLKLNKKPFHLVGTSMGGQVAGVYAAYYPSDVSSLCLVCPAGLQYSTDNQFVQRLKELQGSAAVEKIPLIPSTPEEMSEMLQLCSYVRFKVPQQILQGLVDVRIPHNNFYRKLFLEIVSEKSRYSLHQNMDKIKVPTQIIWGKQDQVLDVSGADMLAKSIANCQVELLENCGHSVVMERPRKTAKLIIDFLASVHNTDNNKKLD

hFAAH = biological target: T5, hFAAH (Homo sapiens, UniProt O00519); test: FAAH activity assay, hFAAH-COS7 membranes (3H-anandamide); assay type: biochemical
T5 construct: expressed in transfected cells; host or cells: COS-7
T5 sequence (O00519 1-579): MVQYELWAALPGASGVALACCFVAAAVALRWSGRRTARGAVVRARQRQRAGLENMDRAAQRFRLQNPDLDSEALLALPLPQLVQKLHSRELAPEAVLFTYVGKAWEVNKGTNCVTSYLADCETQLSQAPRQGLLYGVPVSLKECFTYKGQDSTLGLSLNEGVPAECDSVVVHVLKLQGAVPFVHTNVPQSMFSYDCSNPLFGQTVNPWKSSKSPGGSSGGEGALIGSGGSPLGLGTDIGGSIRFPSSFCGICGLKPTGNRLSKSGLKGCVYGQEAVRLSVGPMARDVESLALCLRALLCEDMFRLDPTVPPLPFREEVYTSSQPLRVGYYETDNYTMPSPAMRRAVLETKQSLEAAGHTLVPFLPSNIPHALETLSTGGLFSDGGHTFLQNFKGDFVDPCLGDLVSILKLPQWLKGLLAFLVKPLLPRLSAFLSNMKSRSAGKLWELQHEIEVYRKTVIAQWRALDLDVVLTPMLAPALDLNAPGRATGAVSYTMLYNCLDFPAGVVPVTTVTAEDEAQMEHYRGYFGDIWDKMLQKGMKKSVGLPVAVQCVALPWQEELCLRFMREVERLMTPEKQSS

mBAT5 = biological target: T6, mBAT5 (Mus musculus, UniProt Q9Z1Q2); test: Competitive ABPP (TAMRA-FP) with mBAT5-HEK293 lysates; settings: 1 h pretreatment
T6 sequence (Q9Z1Q2 1-558): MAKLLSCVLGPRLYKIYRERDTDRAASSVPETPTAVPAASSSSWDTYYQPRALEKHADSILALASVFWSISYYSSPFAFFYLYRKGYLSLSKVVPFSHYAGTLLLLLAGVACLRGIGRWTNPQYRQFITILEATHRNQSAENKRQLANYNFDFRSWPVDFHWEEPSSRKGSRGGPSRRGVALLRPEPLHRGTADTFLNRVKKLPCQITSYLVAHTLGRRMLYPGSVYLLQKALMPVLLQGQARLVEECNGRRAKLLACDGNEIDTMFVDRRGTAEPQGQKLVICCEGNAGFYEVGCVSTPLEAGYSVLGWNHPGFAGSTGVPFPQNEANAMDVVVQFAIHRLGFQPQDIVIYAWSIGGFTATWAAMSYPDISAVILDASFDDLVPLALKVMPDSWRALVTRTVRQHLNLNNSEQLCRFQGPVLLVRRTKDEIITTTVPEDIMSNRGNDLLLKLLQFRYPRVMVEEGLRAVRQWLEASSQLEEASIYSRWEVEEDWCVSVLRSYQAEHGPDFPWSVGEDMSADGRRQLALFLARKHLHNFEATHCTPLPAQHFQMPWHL
Procedure: Inhibitor dose–response curves and IC50 values derived thereof were calculated from non-linear regressions using GraphPad Prism 5.0 for Windows. The logIC50 values are means ± SEM from three independent experiments. […] The data are derived from three separate ABPP experiments.

hABHD6 [4] = biological target: T4, hABHD6; set-up: method as in PMID 22969151; settings: 2-AG as the substrate; range given jointly for hABHD6, hABHD12 and hMAGL; cited from earlier work
hMAGL [5] = biological target: T2, hMAGL; settings: 2-AG as the substrate; range given jointly for hABHD6, hABHD12 and hMAGL; cited from earlier work
hABHD12 [6] = biological target: T1, hABHD12; set-up: method as in PMID 22969151; settings: 2-AG as the substrate; range given jointly for hABHD6, hABHD12 and hMAGL; cited from earlier work
[7] = at 10^−5 M, read-out: Remaining activity

**Q.** With `CC(=C\C(=O)O)/C=C(\C)C[C@H](C)CCCC[C@H]1OC(=O)[C@@H]1CO` [Hymeglusin, hymeglusin] as the compound, how does the “sensitivity of hABHD12 (in words)” value (hABHD12 [1]) read?
**A.** Its value is “resistant”.

**Q.** And the remaining activity at 10 µM (hABHD12 [1]; [7])?
**A.** Its remaining activity at 10 µM is 103%.

**Q.** What about the “sensitivity of hMAGL (in words)” value (hMAGL [2]) of the same compound?
**A.** The value was “resistant”.

**Q.** What about the remaining activity at 10 µM (hMAGL [2]; [7]) of the same compound?
**A.** Its remaining activity at 10 µM is 106%.

**Q.** And the “hBAT5 inhibitory activity (in words)” value (hBAT5; 1-LG hydrolysis)?
**A.** The value was “inactive”.

**Q.** And the remaining activity at 10 µM (hBAT5; at 10^-5 M, 1-LG 25 µM)?
**A.** Its remaining activity at 10 µM is 102.6 ± 1%.

**Q.** What about the IC50 (hABHD6 [3]) of the same compound?
**A.** The IC50 was ~3.2 µM and 3.2 µM.

**Q.** What about the “sensitivity of hFAAH (in words)” value (hFAAH) of the same compound?
**A.** Its value is “resistant”.

**Q.** What about the remaining activity at 10 µM (hFAAH; [7]) of the same compound?
**A.** Its remaining activity at 10 µM is 79.2%.

**Q.** And the “inhibition of probe binding to mBAT5 (in words)” value (mBAT5)?
**A.** Its value is “inactive”.

**Q.** For `CCCCC/C=C\C/C=C\C/C=C\C/C=C\CCCC(=O)OC(CO)CO` [2-AG, 2-arachidonoylglycerol], which Km (hABHD6 [4]) is on record?
**A.** The Km was 110 to 160 µM.

**Q.** And the Km (hMAGL [5])?
**A.** Its Km is 110 to 160 µM.

**Q.** What about the Km (hABHD12 [6]) of the same compound?
**A.** Its Km is 110 to 160 µM.
